Earlier results as cited in US10098891B2, “Highly concentrated stable meloxicam solutions for needleless injection” (BOEHRINGER INGELHEIM VETMEDICA GMBH, priority 2001, dated 2018).

Conditions: aqueous solution

solubility in water: does not dissolve readily in water
Compound: Cc1cnc(NC(=O)C2=C(O)c3ccccc3S(=O)(=O)N2C)s1 [meloxicam, 4-hydroxy-2-methyl-N-(5-methyl-2-thiazolyl)-2H-1,2-benzothiazine-3-carboxamide-1,1-dioxide]
